Data set [1] is described as follows: Cytotoxicity evaluation in GS4.1 cells (Cell Titer 96 AQueous One Solution). In kind it is cell-based. The following applies: human, 72 hours. As for the experimental part: (§1) Huh-7 cells containing HCV Conl subgenomic replicon (GS4.1 cells), (C. Seeger; Fox Chase University, Philadelphia, Pa., USA), are grown in Dulbecco's Modified Eagle Medium (DMEM) supplemented with 10% fetal bovine serum (FBS), 2 mM L-glutamine, 110 mg/L sodium pyruvate, 1×non-essential amino acids, 100 U/mL penicillin-streptomycin and 0.5 mg/mL G418 (Invitrogen). For dose-response testing, the cells are seeded in 96-well plates at 7.5×10^3 cells/well in a volume of 50 μL and incubated at 37° C./5% CO2. Three hours after plating, 50 μL of ten 2-fold serial dilutions of compounds (highest concentration, 75 μM) are added and cell cultures were incubated at 37° C./5% CO2 in the presence of 0.5% DMSO. Alternatively, compounds are tested at a single concentration of 15 μM. In all cases, Huh-7 cells lacking the HCV replicon served as negative control. The cells are incubated in the presence of compounds for 72 hours after which they were monitored for expression of the NS4A protein by enzyme-linked immunosorbent assay (ELISA). For this, the plates were then fixed for 1 min with 1:1 acetone:methanol, washed twice with phosphate-buffered saline (PBS), 0.1% Tween 20, blocked for 1 hour at room temperature with TNE buffer containing 10% FBS and then incubated for 2 h at 37° C. with the anti-NS4A mouse monoclonal antibody A-236 (ViroGen) diluted in the same buffer. After washing three times with PBS, 0.1% Tween 20, the cells are incubated 1 hour at 37° C. with anti-mouse immunoglobulin G-peroxidase conjugate in TNE, 10% FBS. After washing as described above, the reaction is developed with O-phenylenediamine (Zymed). The reaction is stopped after 30 minutes with […] and the absorbance is read at 492 nm using a Sunrise Tecan spectrophotometer. EC50 values are determined from the % inhibition versus concentration data using a sigmoidal non-linear regression analysis based on four parameters with Tecan Magellan software. […] For cytotoxicity evaluation, GS4.1 cells are treated with compounds as described above and cellular viability was monitored using a Cell Titer 96 AQueous One Solution Cell Proliferation Assay (Promega). CC50 values are determined from the % cytotoxicity versus concentration data with Tecan Magellan software as described above.

The subject of data set [2] is HCV Conl subgenomic replicon (GS4.1 cells). Nature of the data set: HCV replicon assay (NS4A ELISA, HCV ELISA 2). In kind it is cell-based. To be noted: Hepatitis C virus; GS4.1 cells, 72 hours, NS4A ELISA; read-out: HCV ELISA 2 EC50. The method, then: as §1

As usually defined, the CC50 is the concentration at which the toxic effect on the cells reaches its halfway point. A lower CC50 goes with harm at low concentration. For orientation: EC50 means the concentration giving half of the maximal effect. `CC(C)(CO)C(=O)SCCOP(=O)(NCc1ccccc1)OC[C@H]1O[C@@H](n2ccc(=O)[nH]c2=O)[C@](C)(O)[C@@H]1O` (stereo partly shown) [Example B229, Hydroxy-tBuSATE N-benzylphosphoramidate Derivative of 2′-C-methyluridine]: the CC50 in data set [1] was > 75 µM. In addition, in data set [2], the 50% effective concentration (EC50) was in the range of 1 to 10 µM.

As for `CC(C)C(N)C(=O)O[C@@H]1[C@@H](COP(=O)(NCc2ccccc2)OCCSC(=O)C(C)(C)CO)O[C@@H](n2ccc(N)nc2=O)[C@]1(C)O` (stereo partly drawn) [Example B234, Hydroxy-tBuSATE N-benzylphosphoramidate Derivative of 3′-O-L-valinyl-2′-C-methylcytidine], the CC50 in data set [1] is > 75 µM. For the same compound, the EC50 in data set [2] lay in the range of 1 to 10 µM.

Take `CC(C)(CO)C(=O)SCCOP(=O)(NCc1ccccc1)OC[C@H]1O[C@@H](n2cnc3c(Cl)ncnc32)[C@](C)(O)[C@@H]1O` (stereo partly drawn) [Example B396, Hydroxy-tBuSATE N-benzylphosphoramidate Derivative of 9-[2-C-methyl-β-ribofuranosyl]-6-chloropurine]: the CC50 in data set [1] is ≤ 75 µM. Also, the EC50 in data set [2] was < 1 µM.

In the case of `C#C[C@@]1(F)[C@H](O)[C@@H](CO)O[C@H]1n1cnc2c(=O)[nH]c(N)nc21` [Example D961], the CC50 in data set [1] is > 75 µM. Moreover, the EC50 in data set [2] is > 10 µM.

For `C[C@@]1(O)[C@H](O)[C@@H](CO)O[C@H]1n1cc(F)c2c(N)ncnc21` [Example E810, 2′-C-methyl-7-deaza-7-fluoro-adenosine, reference compound], the CC50 in data set [1] was > 75 µM. Further, the half-maximal effective concentration (EC50) in data set [2] was < 1 µM.

The values above are taken from patent publication US7951789B2 (priority 2006, dated 2011).
